Results on six compounds are retold here after doi:10.1101/2024.08.19.608619, “Discovery of potent SARS-CoV-2 nsp3 macrodomain inhibitors uncovers lack of translation to cellular antiviral response” (bioRxiv, 2024).

SMILES strings stand for the structures. Where two headings read alike, the source gives them in different places.

Holding throughout (test): biochemical
Holding throughout (set-up): In vitro kinase panel profiling, per cent remaining kinase activity at 10 uM

For one assay, the target named is T1, Abl(h) (Homo sapiens, UniProt P00519).
T1 construct: gene ABL1
As to conditions: atp_concentration=45, read-out: % of control remaining. The source says:
(§1) We derisk potential for off-target activity by profiling the compound in a CEREP panel, a standard secondary pharmacology assessment, as well as a kinase panel to derisk a potential hinge-binding motif in our leads, and a PARP panel to derisk activity against human […]. Reassuringly, the compounds are selective, with the only off-targets being moderate human CHRM2 and KOR receptors activity associated with ASAP-0011198.

The next assay addresses T2, CK2α2(h) (Homo sapiens, UniProt P19784).
T2 construct: gene CSNK2A2
The conditions noted are these: atp_concentration=10, read-out: % of control remaining.
Text: as §1

In assay [1] the target is T3, PI3 Kinase (p110α/p85α)(h) (Homo sapiens, UniProt P42336).
T3 construct: gene PIK3CA
As to conditions: atp_concentration=200, read-out: % of control remaining.
Text: as §1

The target of another assay is T4, PKBα(h) (Homo sapiens, UniProt P31749).
T4 construct: gene AKT1
As to conditions: atp_concentration=155, read-out: % of control remaining.
Text: as §1

Another assay deals with T5, PKG1α(h) (Homo sapiens, UniProt Q13976).
T5 construct: gene PRKG1; isoform alpha
T5 sequence (Q13976 1-671): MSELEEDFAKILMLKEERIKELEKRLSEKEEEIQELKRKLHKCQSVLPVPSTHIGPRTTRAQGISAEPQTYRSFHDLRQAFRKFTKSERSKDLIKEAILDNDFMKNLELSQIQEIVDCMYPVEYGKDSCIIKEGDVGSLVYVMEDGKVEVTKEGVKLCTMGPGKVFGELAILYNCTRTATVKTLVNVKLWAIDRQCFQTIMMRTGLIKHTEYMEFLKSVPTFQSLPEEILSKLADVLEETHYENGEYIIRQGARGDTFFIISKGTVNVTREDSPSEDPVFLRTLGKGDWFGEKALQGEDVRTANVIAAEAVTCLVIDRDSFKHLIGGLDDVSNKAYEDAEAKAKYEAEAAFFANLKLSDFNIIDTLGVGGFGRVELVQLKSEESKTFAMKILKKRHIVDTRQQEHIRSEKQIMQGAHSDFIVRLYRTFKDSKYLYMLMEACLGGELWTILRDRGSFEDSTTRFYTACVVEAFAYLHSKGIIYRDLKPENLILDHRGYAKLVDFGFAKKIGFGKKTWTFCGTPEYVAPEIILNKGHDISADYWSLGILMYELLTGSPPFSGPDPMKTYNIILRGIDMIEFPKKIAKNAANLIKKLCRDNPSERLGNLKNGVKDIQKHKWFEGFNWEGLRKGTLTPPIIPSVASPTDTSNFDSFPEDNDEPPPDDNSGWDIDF
The conditions noted are these: atp_concentration=90, read-out: % of control remaining.
Text: as §1

In another assay the target is T6, ROCK-I(h) (Homo sapiens, UniProt Q13464).
T6 construct: gene ROCK1
The conditions noted are these: atp_concentration=70, read-out: % of control remaining.
Text: as §1

The next assay has as its target T7, Rse(h) (Homo sapiens, UniProt Q06418).
T7 construct: gene TYRO3
T7 sequence (Q06418 1-890): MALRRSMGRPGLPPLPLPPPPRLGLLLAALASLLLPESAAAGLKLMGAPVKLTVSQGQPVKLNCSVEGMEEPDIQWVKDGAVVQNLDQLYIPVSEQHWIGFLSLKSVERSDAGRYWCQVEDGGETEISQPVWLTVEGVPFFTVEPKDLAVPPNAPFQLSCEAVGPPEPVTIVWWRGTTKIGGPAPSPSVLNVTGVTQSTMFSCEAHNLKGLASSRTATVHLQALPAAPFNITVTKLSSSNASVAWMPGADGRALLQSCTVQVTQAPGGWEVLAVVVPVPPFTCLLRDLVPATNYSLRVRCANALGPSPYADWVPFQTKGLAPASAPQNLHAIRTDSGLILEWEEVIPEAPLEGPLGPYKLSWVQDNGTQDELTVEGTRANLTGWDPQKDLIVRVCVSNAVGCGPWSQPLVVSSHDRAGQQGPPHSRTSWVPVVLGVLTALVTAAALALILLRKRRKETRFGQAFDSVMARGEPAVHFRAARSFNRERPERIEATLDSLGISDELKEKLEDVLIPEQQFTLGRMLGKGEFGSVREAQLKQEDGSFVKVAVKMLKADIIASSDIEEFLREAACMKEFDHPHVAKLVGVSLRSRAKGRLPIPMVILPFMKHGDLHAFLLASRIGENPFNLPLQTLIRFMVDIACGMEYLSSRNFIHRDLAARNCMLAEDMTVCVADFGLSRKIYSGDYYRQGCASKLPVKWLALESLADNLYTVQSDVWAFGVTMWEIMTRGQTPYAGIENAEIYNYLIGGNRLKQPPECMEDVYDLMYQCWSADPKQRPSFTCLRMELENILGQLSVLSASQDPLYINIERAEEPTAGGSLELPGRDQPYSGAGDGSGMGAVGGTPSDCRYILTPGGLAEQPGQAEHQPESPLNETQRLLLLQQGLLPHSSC
The conditions noted are these: atp_concentration=45, read-out: % of control remaining.
Text: as §1

The next assay deals with T8, Rsk1(h) (Homo sapiens, UniProt Q15418).
T8 construct: gene RPS6KA1
The conditions noted are these: atp_concentration=45, read-out: % of control remaining.
Text: as §1

For a further assay, the target named is T9, SAPK2a(h) (Homo sapiens, UniProt Q16539).
T9 construct: gene MAPK14
The conditions noted are these: atp_concentration=90, read-out: % of control remaining.
Text: as §1

T2 sequence (P19784 whole entry): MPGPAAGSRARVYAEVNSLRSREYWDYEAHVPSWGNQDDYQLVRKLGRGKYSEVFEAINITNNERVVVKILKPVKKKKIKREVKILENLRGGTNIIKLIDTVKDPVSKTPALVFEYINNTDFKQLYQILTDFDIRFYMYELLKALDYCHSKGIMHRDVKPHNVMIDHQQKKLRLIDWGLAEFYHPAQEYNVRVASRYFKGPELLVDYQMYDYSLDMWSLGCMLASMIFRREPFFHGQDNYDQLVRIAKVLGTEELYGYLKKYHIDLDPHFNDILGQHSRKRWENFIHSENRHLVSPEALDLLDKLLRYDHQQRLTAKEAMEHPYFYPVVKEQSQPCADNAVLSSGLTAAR
T1 sequence (P00519 whole entry): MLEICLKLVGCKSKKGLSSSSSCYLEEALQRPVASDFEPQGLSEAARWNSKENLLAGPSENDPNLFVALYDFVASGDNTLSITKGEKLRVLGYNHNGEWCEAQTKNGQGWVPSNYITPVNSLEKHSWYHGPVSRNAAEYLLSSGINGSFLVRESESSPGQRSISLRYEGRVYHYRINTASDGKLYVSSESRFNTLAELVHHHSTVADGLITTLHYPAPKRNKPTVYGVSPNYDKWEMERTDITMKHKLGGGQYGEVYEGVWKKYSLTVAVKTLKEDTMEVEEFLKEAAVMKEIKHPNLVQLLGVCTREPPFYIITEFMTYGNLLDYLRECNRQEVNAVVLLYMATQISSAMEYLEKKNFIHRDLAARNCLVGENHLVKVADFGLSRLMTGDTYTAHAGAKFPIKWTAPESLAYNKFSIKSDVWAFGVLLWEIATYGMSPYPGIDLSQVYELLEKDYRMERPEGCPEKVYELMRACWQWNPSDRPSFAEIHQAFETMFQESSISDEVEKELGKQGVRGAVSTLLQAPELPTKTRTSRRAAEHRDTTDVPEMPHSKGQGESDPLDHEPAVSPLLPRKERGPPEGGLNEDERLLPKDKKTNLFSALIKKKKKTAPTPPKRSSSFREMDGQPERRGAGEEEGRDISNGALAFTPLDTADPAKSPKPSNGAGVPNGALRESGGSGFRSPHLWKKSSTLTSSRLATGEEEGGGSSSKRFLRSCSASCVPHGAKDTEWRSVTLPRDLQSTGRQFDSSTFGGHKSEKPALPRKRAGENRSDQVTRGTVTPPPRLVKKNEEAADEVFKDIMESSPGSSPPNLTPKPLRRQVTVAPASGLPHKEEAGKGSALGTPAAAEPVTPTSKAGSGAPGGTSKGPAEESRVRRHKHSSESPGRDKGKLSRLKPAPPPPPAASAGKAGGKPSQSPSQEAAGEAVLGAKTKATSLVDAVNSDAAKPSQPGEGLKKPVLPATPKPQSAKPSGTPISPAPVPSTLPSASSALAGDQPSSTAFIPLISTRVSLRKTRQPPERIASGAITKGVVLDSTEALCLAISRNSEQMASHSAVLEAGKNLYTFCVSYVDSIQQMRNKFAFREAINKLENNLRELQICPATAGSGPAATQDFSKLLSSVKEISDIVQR
T3 sequence (P42336 whole entry): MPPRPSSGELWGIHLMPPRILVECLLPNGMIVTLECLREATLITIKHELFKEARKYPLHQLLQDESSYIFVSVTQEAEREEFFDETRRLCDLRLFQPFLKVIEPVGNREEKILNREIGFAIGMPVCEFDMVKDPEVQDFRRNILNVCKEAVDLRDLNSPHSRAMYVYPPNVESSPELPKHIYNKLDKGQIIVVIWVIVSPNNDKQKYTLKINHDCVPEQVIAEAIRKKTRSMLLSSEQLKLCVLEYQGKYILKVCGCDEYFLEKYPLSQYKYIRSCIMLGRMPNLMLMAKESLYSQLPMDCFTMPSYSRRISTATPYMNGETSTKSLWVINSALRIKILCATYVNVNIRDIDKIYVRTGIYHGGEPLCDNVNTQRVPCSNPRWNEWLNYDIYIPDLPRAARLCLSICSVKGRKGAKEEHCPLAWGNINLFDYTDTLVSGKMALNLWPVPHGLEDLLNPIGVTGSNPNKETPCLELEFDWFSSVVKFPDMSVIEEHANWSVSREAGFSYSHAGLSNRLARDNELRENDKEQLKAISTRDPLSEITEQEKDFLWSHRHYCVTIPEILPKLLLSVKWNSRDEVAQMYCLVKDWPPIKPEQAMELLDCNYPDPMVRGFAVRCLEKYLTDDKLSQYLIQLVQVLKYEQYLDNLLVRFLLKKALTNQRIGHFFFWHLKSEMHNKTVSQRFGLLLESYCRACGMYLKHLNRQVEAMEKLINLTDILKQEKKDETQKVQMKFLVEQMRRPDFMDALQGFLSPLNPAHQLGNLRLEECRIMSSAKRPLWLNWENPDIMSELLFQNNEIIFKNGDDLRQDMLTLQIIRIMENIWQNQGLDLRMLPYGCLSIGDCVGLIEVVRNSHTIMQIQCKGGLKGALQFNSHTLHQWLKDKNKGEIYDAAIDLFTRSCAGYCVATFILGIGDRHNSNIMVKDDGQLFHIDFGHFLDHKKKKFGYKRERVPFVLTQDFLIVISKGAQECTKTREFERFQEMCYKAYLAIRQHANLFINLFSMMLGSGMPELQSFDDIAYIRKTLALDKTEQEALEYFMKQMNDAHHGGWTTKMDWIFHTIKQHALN
T3 sequence (P27986 whole entry partner): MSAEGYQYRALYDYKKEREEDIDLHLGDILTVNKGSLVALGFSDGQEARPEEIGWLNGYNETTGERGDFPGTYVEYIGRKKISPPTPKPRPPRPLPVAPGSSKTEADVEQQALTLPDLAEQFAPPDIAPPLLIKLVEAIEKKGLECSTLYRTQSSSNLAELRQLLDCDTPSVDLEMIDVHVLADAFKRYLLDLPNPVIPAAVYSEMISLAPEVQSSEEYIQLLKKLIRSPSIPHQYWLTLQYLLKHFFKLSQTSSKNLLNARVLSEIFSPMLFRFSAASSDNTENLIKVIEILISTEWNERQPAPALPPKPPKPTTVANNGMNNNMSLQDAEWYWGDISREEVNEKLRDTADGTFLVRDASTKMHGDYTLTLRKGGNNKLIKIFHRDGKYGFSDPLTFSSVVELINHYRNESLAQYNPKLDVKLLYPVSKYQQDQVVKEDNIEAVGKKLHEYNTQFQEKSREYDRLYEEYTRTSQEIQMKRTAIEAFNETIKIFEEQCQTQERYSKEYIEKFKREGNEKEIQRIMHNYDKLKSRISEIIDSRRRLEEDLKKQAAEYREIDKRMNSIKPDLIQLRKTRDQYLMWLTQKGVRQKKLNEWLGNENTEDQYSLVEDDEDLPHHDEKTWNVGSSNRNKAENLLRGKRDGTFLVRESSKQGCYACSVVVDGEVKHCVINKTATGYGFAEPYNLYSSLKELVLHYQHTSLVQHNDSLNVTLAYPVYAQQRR
T6 sequence (Q13464 whole entry): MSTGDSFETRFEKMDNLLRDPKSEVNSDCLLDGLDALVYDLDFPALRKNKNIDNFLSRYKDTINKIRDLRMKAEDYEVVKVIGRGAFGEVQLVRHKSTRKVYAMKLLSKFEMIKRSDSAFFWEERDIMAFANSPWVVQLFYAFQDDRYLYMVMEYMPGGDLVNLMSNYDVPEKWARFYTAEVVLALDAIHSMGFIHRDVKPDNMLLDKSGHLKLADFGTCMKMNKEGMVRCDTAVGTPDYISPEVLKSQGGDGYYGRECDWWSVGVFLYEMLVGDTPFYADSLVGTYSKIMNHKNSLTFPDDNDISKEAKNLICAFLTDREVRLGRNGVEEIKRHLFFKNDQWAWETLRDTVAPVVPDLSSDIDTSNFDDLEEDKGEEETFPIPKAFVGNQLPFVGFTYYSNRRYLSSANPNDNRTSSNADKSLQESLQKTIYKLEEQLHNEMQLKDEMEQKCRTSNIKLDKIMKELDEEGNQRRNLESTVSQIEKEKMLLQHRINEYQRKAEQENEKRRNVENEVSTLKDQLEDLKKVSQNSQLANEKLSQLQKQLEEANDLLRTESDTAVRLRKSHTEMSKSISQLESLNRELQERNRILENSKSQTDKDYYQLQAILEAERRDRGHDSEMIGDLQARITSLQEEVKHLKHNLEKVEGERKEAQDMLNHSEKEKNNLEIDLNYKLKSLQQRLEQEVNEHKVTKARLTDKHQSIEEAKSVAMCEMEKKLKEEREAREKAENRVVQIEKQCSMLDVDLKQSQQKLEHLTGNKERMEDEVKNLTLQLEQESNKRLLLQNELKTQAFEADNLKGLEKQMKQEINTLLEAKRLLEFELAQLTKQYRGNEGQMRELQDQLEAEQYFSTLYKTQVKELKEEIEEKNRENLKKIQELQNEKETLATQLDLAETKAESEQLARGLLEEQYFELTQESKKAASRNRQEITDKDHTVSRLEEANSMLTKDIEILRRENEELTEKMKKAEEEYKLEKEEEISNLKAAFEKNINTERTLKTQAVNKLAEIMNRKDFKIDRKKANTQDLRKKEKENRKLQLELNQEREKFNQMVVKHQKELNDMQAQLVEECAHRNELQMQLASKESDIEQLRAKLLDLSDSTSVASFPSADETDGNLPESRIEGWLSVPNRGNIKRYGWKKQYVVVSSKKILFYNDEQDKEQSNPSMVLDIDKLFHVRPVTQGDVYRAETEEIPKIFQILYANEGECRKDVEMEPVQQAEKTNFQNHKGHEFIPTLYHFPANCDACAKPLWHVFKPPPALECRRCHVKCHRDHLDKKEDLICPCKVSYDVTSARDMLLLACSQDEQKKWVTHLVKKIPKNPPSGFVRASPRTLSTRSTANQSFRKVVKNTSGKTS
T9 sequence (Q16539 whole entry): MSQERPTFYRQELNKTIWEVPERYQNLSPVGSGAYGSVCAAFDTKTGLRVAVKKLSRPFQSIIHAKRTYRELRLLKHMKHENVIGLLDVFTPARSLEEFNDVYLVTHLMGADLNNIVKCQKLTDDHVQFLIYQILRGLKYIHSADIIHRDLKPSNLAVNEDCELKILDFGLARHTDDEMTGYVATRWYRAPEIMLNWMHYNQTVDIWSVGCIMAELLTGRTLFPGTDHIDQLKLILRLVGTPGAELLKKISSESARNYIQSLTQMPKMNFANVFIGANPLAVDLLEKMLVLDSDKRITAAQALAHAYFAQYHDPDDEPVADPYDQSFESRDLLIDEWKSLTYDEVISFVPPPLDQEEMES

On to `CC(C)[C@@H](Nc1ncnc2[nH]c(-c3cnn(C)c3C#N)cc12)c1ccc2c(n1)OCCO2` [ASAP-0010716], for which the remaining activity at 10 µM at Abl(h) (batch_name=ASAP-0010716-002) is 57%; at CK2α2(h) (batch_name=ASAP-0010716-002) it was 93%; in [1] (batch_name=ASAP-0010716-002) it was 55%; on PKBα(h) (batch_name=ASAP-0010716-002), 94%; at PKG1α(h) (batch_name=ASAP-0010716-002), 123%; on ROCK-I(h) (batch_name=ASAP-0010716-002) it was 107%. The remaining activity at 10 µM on Rse(h) (batch_name=ASAP-0010716-002) was found to be 107%; on Rsk1(h) (batch_name=ASAP-0010716-002) it was 102%; at SAPK2a(h) (batch_name=ASAP-0010716-002), 101%.
As for `Cn1ncc(-c2cc3c(N[C@@H](c4ccc5c(n4)OCCO5)C(C)(C)C)ncnc3[nH]2)c1C#N` [ASAP-0011221], the remaining activity at 10 µM stood at 81% at Abl(h) (batch_name=ASAP-0011221-002); 92% on CK2α2(h) (batch_name=ASAP-0011221-002); 75% in [1] (batch_name=ASAP-0011221-002); 103% at PKBα(h) (batch_name=ASAP-0011221-002); 127% at PKG1α(h) (batch_name=ASAP-0011221-002); 129% at ROCK-I(h) (batch_name=ASAP-0011221-002). In addition, the remaining activity at 10 µM on Rse(h) (batch_name=ASAP-0011221-002) amounted to 110%; at Rsk1(h) (batch_name=ASAP-0011221-002), 136%; at SAPK2a(h) (batch_name=ASAP-0011221-002), 106%.
Consider `CC(C)C(Nc1ncnc2[nH]c(C(=O)NC3CCN(C)C3)cc12)c1ccc2c(c1)S(=O)(=O)CCC2` (stereo not drawn) [ASAP-0011198], for which the remaining activity at 10 µM on Abl(h) (batch_name=ASAP-0011198-002) was 100%; at CK2α2(h) (batch_name=ASAP-0011198-002), 98%; in assay [1] (batch_name=ASAP-0011198-002) it was 104%; on PKBα(h) (batch_name=ASAP-0011198-002), 88%; on PKG1α(h) (batch_name=ASAP-0011198-002), 116%; at ROCK-I(h) (batch_name=ASAP-0011198-002) it was 98%. For the same compound, the values for the remaining activity at 10 µM at Rse(h) (batch_name=ASAP-0011198-002), on Rsk1(h) (batch_name=ASAP-0011198-002) and on SAPK2a(h) (batch_name=ASAP-0011198-002) were 107%, 94% and 97%, respectively.
In the case of `CC(C)[C@H](Nc1ncnc2[nH]ccc12)c1ccc2c(c1)S(=O)(=O)CCC2` [ASAP-0008674], the remaining activity at 10 µM was 105% at Abl(h) (batch_name=ASAP-0008674-002); 87% on CK2α2(h) (batch_name=ASAP-0008674-002); 94% in [1] (batch_name=ASAP-0008674-002); 95% on PKBα(h) (batch_name=ASAP-0008674-002); 123% on PKG1α(h) (batch_name=ASAP-0008674-002); 115% on ROCK-I(h) (batch_name=ASAP-0008674-002). Moreover, the remaining activity at 10 µM at Rse(h) (batch_name=ASAP-0008674-002) turned out to be 86%; on Rsk1(h) (batch_name=ASAP-0008674-002), 102%; at SAPK2a(h) (batch_name=ASAP-0008674-002) it was 107%.
`CC(C)[C@@H](Nc1ncnc2[nH]c(-c3cnn(C)c3C#N)cc12)c1ccc2c(n1)OCCO2` [ASAP-0008418]: the remaining activity at 10 µM at Abl(h) (batch_name=ASAP-0008418-001) is 52%; at CK2α2(h) (batch_name=ASAP-0008418-001) it was 86%; in [1] (batch_name=ASAP-0008418-001), 49%; on PKBα(h) (batch_name=ASAP-0008418-001) it was 95%; on PKG1α(h) (batch_name=ASAP-0008418-001) it was 100%; on ROCK-I(h) (batch_name=ASAP-0008418-001), 93%. In addition, the remaining activity at 10 µM at Rse(h) (batch_name=ASAP-0008418-001) is 116%; at Rsk1(h) (batch_name=ASAP-0008418-001), 145%; at SAPK2a(h) (batch_name=ASAP-0008418-001) it was 103%.
Consider `COc1ccc([C@@H](Cc2nnn[nH]2)NC(=O)c2ncnc3[nH]ccc23)cc1` [ASAP-0008340], for which the remaining activity at 10 µM is 98% on Abl(h) (batch_name=ASAP-0008340-001); 88% at CK2α2(h) (batch_name=ASAP-0008340-001); 101% in [1] (batch_name=ASAP-0008340-001); 94% on PKBα(h) (batch_name=ASAP-0008340-001); 95% at PKG1α(h) (batch_name=ASAP-0008340-001); 93% on ROCK-I(h) (batch_name=ASAP-0008340-001). The figures for the remaining activity at 10 µM at Rse(h) (batch_name=ASAP-0008340-001), at Rsk1(h) (batch_name=ASAP-0008340-001) and on SAPK2a(h) (batch_name=ASAP-0008340-001) were 88%, 98% and 100%, respectively.
